Test results as given in patent publication US20250120978A1, “JAK INHIBITOR WITH ERK1/2 AND/OR SHP2 INHIBITORS COMBINATION THERAPY” (Erasca, Inc., priority 2021, published 2025).

Columns and labels:
[1] = system: JAK2V617F knock-in mouse models; assay: Splenomegaly in Jak2V617F knock-in mouse model of MPN; format: in vivo; conditions: Compound 2 30 mg/kg/per day, compared with vehicle treatment
Procedure: In animal models, JAK2V617F expression typically leads to the development of MPN-like disease which results in enlargement of spleen (splenomegaly), higher cell counts, and fibrotic evolution. JAK2V617F knock-in mouse models were used to investigate the effect of the combination of Compound 2 with ruxolitinib. Animals were dosed with either Compound 2, ruxolitinib, or the combination of Compound 2 with ruxolitinib. […] Data are shown in bar graphs as mean±SEM (n=4 for vehicle; n=7 for Compound 2 I; n=4 for ruxolitinib; n=7 for combo drug treatment) in FIG. 6B. (*p<0.05; **p<0.005).

[2] = system: Human JAK2V617F-positive UKE-1 cells; assay: Apoptosis by Annexin V staining and flow cytometry in UKE-1 cells; format: cell-based; conditions: 72 hours, Annexin V staining; single drug
Procedure: The following experiment was designed to test whether the combination of Compound 2 and ruxolitinib induces apoptosis in UKE-1 cells harboring a JAK2V617F mutation. […] Cell apoptosis was determined by Annexin V staining and flow cytometry.

Compound: COCOC[C@H]1C[C@H]2COc3c(Sc4cnc(N5CCC6(CC5)CO[C@@H](C)[C@H]6N)c(CO)n4)ccnc3N2C1 [Compound 2, (3-((3S,4S)-4-amino-3-methyl-2-oxa-8-azaspiro[4.5]decan-8-yl)-6-(((6aS,8S)-8-((methoxymethoxy)methyl)-6a,7,8,9-tetrahydro-6H-pyrido[3,2-b]pyrrolo[1,2-d][1,4]oxazin-4-yl)thio)pyrazin-2-yl)methanol]
- spleen size/weight [1]: significantly reduced
- cell apoptosis [2]: induced apoptosis
